The test has as its system LUVs containing 20% TOCL or POPG in POPC background. Briefly: Fluorescent reporters of lipid dynamics and packing (DPH anisotropy, laurdan and prodan GP). As for the experimental part:
Figure 4. Effects of SS-31 on structural properties of model membranes. […] LUVs composed of 20% anionic lipid (TOCL, MLCL, or POPG) in POPC background were measured in the absence or presence of peptide ([SS-31]/[lipid]^eff = 1:5) as indicated. A, synchrotron SAXS measurements showing background-subtracted scattering density profiles for LUVs in the absence (black) or presence (red) of SS-31. B, ^31P solid-state NMR spectra of LUVs in the absence (bottom spectra) or presence (top spectra) of SS-31. C, SS-31 alters lipid packing interactions. Shown are changes in laurdan and prodan GP values (ΔGP) with increasing [SS-31] for LUVs containing 20% TOCL or POPG in POPC background as indicated. Data and fits in gray show SS-31 fractional saturation (calculated from Fig. 2A, [lipid]^eff = 25 μM). […]
We therefore addressed whether SS-31 altered lipid interactions within these model bilayers. […] Using 1,6-diphenyl-1,3,5-hexatriene (DPH) anisotropy (〈r〉^DPH) as a readout of the fluid dynamics of hydrocarbon tails, we observed no effect of SS-31 in TOCL- or POPG-containing membranes (Fig. S10, D and E). […]
Steady-state fluorescence measurements were performed with a Fluorolog 3-22 spectrofluorometer (HORIBA Jobin-Yvon) equipped with photon-counting electronics, double-grating excitation and emission monochromators, automated Glan–Thompson polarizers, and a 450-watt xenon lamp. […]

Structures are written as SMILES. Where a SMILES comes first, the peptide text is derived from it. [ ]: non-standard residue; d: D form. Dmt = Cc1cc(O)cc(C)c1C[C@H](N)C(=O)O

Regarding `Cc1cc(O)cc(C)c1C[C@H](NC(=O)[C@H](N)CCCNC(=N)N)C(=O)N[C@@H](CCCCN)C(=O)N[C@@H](Cc1ccccc1)C(N)=O` [SS-31, D-Arg-2′6′-dimethyl-Tyr-Lys-Phe-NH2] (H-[dR][Dmt]KF-NH2), the “effect on DPH anisotropy (fluid dynamics of hydrocarbon tails)” value (TOCL- or POPG-containing membranes) was “no effect”. Moreover, the “effect on laurdan and prodan generalized polarization (GP^LAU, GP^PRO)” value (increasing [SS-31], 20% TOCL or POPG LUVs, n = 3) was “modest, yet repeatable and saturable, increases”.

The record behind these values is paper PMC7247319, “The mitochondria-targeted peptide SS-31 binds lipid bilayers and modulates surface electrostatics as a key component of its mechanism of action” (The Journal of Biological Chemistry, 2020).
